The source of these data is ChEMBL document CHEMBL1146176, “Synthesis and anti-microbial activity of pyrazolylbisindoles--promising anti-fungal compounds” (2006).

Type in all cases: functional
The test system of test [1] is Thanatephorus cucumeris. Description: Antifungal activity against Rhizoctonia solani at 1 mmol after 48 hrs.
Test [2] relates to Curvularia lunata. Nature of the test: Antifungal activity against Curvularia lunata at 1 mmol after 48 hrs.
Test [3] relates to Curvularia lunata. Nature of the test: Antifungal activity against Curvularia lunata at 1 mmol after 48 hrs relative to control.
The test system of test [4] is Thanatephorus cucumeris. Description: Antifungal activity against Rhizoctonia solani at 1 mmol after 48 hrs relative to control.
In test [5] the test system is Candida albicans. Nature of the test: Antimicrobial activity against Candida albicans at 0.622 mg/ml after 48 hrs. The conditions noted are these: read-out: IZ.
Test [6] concerns Staphylococcus epidermidis. Nature of the test: Inhibition of growth of Staphylococcus epidermidis at 0.622 mg/ml after 48 hrs. The conditions noted are these: read-out: IZ.
Test [7] deals with Pseudomonas aeruginosa. Description: Inhibition of growth of Pseudomonas aeruginosa at 0.622 mg/ml after 48 hrs. To be noted: read-out: IZ.
The subject of test [8] is Candida albicans. Description: Antimicrobial activity against Candida albicans at 0.622 mg/ml after 48 hrs relative to control.
The test system of test [9] is Staphylococcus epidermidis. Nature of the test: Inhibition of growth of Staphylococcus epidermidis at 0.622 mg/ml after 48 hrs relative to control.
Test [10] has as its system Pseudomonas aeruginosa. Description: Inhibition of growth of Pseudomonas aeruginosa at 0.622 mg/ml after 48 hrs relative to control.
The test system of test [11] is Candida albicans. Description: Antimicrobial activity against Candida albicans at 1 mmol after 48 hrs.
The test system of test [12] is Staphylococcus epidermidis. Nature of the test: Antimicrobial activity against Staphylococcus epidermidis at 1 mmol after 48 hrs.
Test [13] has as its system Pseudomonas aeruginosa. Nature of the test: Antimicrobial activity against Pseudomonas aeruginosa at 1 mmol after 48 hrs.
In test [14] the test system is Pseudomonas aeruginosa. Description: Antimicrobial activity against Pseudomonas aeruginosa at 1 mmol after 48 hrs relative to control.
Test [15] relates to Candida albicans. Description: Antimicrobial activity against Candida albicans at 1 mmol after 48 hrs relative to control.
Test [16] deals with Staphylococcus epidermidis. Description: Antimicrobial activity against Staphylococcus epidermidis at 1 mmol after 48 hrs relative to control.
The subject of test [17] is Curvularia lunata. Description: Antifungal activity against Curvularia lunata at 0.652 mg/ml after 48 hrs. The conditions noted are these: read-out: IZ.
Test [18] relates to Thanatephorus cucumeris. Description: Antifungal activity against Rhizoctonia solani at 0.652 mg/ml after 48 hrs. The conditions noted are these: read-out: IZ.
For test [19], the system named is Curvularia lunata. Description: Antifungal activity against Curvularia lunata at 0.652 mg/ml after 48 hrs relative to control.
Test [20] relates to Thanatephorus cucumeris. Nature of the test: Antifungal activity against Rhizoctonia solani at 0.652 mg/ml after 48 hrs relative to control.

Broadly, the Inhibition is the change of the read-out against control, counted positive when it falls. Read a low Inhibition as little suppression. As a reminder, the inhibition is how much of the control response was suppressed.

With `Brc1ccc2[nH]cc(C(c3cn(-c4ccccc4)nc3-c3ccccc3)c3c[nH]c4ccc(Br)cc34)c2c1`, the “inhibition zone (IZ)” value in test [1] was 5.3 cm; in test [2], 4.7 cm; in test [11], 2.7 cm; in [12], 2.1 cm; in test [13], 1.8 cm. In addition, the Inhibition in [3] is 47.8%; in test [4] it was 41.1%; in test [9] it was not above 23.3%. In addition, the zone of inhibition at 622 µg/mL in test [5] amounted to 27 mm; in test [6] it was 21 mm; in [7] it was 18 mm. For the same compound, the inhibition at 622 µg/mL in test [8] stood at 30%; in test [10] it was 20%.
For the compound `COc1ccc(-c2nn(-c3ccccc3)cc2C(c2c[nH]c3ccc([N+](=O)[O-])cc23)c2c[nH]c3ccc([N+](=O)[O-])cc23)cc1`, the Inhibition is 0% in test [14]; 84.4% in test [3]; 53.3% in test [4]; 0% in test [15]; 0% in test [16]. Besides, the “inhibition zone (IZ)” value in test [1] was 4.8 cm; in test [2], 1.4 cm; in test [11], 0 cm; in test [12], 0 cm; in [13], 0 cm.
`Clc1ccc(-c2nn(-c3ccccc3)cc2C(c2c[nH]c3ccc(Br)cc23)c2c[nH]c3ccc(Br)cc23)cc1`: the Inhibition in test [14] worked out at 0%; in test [3] it was 15.6%; in test [4], 17.8%; in [15] it was 6.7%; in test [16] it was 0%. Also, the “inhibition zone (IZ)” value in test [1] is given as 7.4 cm; in test [2] it was 7.6 cm; in test [11], 0.6 cm; in test [12], 0 cm; in [13], 0 cm.
In the case of `COc1ccc(-c2nn(-c3ccccc3)cc2C(c2c[nH]c3ccc(Br)cc23)c2c[nH]c3ccc(Br)cc23)cc1`, the values for the Inhibition in test [14], in [15] and in [16] were 15.6%, 0% and 0%, respectively. Also, the figures for the zone of inhibition at 652 µg/mL in test [17] and in test [18] were 3 mm and 5 mm, respectively. Further, the figures for the inhibition at 652 µg/mL in [19] and in [20] were 96.7% and 93.9%, respectively. Also, the “inhibition zone (IZ)” value is given as 0 cm in [11], 0 cm in [12] and 1.4 cm in test [13].
On to `O=[N+]([O-])c1ccc2[nH]cc(C(c3cn(-c4ccccc4)nc3-c3ccccc3)c3c[nH]c4ccc([N+](=O)[O-])cc34)c2c1`, for which the Inhibition in test [14] is 14.4%; in test [3] it was 0%; in test [4] it was 0%; in test [15] it was 0%; in test [16] it was 0%. Besides, the “inhibition zone (IZ)” value in [1] is listed as 9 cm; in test [2], 9 cm; in test [11] it was 0 cm; in test [12], 0 cm; in test [13] it was 1.3 cm.
Take `CCn1c(-c2ccccc2)c(C(c2cn(-c3ccccc3)nc2-c2ccc(Cl)cc2)c2c(-c3ccccc3)n(CC)c3ccccc23)c2ccccc21`: the Inhibition in test [14] is given as 15.6%; in [3], 42.2%; in test [4], 18.8%; in [15], 5.6%; in test [16], 15.6%. Also, the “inhibition zone (IZ)” value in test [1] was determined as 7.3 cm; in test [2] it was 5.2 cm; in test [11], 0.5 cm; in [12], 1.4 cm; in [13], 1.4 cm.
In the case of `CCn1c(-c2ccccc2)c(C(c2cn(-c3ccccc3)nc2-c2ccc(Br)cc2)c2c(-c3ccccc3)n(CC)c3ccccc23)c2ccccc21`, the Inhibition in test [14] is given as 0%; in test [3] it was 13.3%; in test [4] it was 16.7%; in test [15] it was 0%; in [16] it was 7.9%. The “inhibition zone (IZ)” value in test [1] is given as 7.5 cm; in test [2], 7.8 cm; in [11] it was 0 cm; in test [12] it was 0.7 cm; in test [13], 0 cm.
As to `Brc1ccc(-c2nn(-c3ccccc3)cc2C(c2c[nH]c3ccc(Br)cc23)c2c[nH]c3ccc(Br)cc23)cc1`, the Inhibition in test [14] stood at 16.7%; in test [3] it was 91.1%; in test [4], 81.1%; in test [15], 24.4%; in [16], 0%. Further, the “inhibition zone (IZ)” value in [1] was 1.7 cm; in test [2], 0.8 cm; in [11], 2.2 cm; in test [12], 0 cm; in test [13], 1.5 cm.
